What was measured:
[1] = tested on: Bacteroides fragilis ATCC 25285 L1011; assay: MIC by microbroth dilution; format: cell-based; conditions: 0.01% (w/v) BSA, 10^5 CFU/ml, read after 48 h, 37° C., anaerobic N2-CO2-H2, Wilkins-Chalgren broth
Protocol: (§1) The minimal inhibitory concentration (MIC) has been determined by microbroth dilution methodology, in the presence of 0.01% (w/v) of bovine serum albumin (BSA). BSA is added to the diluent to avoid possible adherence of the compounds of the invention to the plastic surface of the microtiter wells, as disclosed also by B. Goldstein et al., Antimicrobial Agents and Chemotherapy, 37 (1993), 741-745.
(§2) Inocula were 10^4 CFU/ml, except for Propionibacterium acnes and Bacteroides fragilis (10^5 CFU/ml).
(§3) MICs were read after 18-24 h, except for Haemophilus influenzae, P. acnes, B. fragilis (48 h).
(§4) All microorganisms were incubated at 37° C.; H. influenzae in a 5% CO2 atmosphere, anaerobes in a N2 --CO2 --H2 (80:10:10) mixture; other organisms in air.
(§5) The growth media are: Oxoid Iso-Sensitest broth for staphylococci and Enterococcus faecalis); Difco Todd Hewitt broth for streptococci; Difco brain heart infusion broth+1% Difco Supplement C for H. influenzae; Difco Wilkins-Chalgren broth for anaerobes.

[2] = tested on: Staph. epidermidis ATCC 12228 L147; assay: MIC by microbroth dilution; format: cell-based; conditions: 0.01% (w/v) BSA, 10^4 CFU/ml, read after 18-24 h, 37° C., Iso-Sensitest broth
Protocol: as §1, §2, §3, §4, §5

Staph. haemolyticus L602 = assay: MIC by microbroth dilution; format: cell-based; conditions: 0.01% (w/v) BSA, 10^4 CFU/ml, read after 18-24 h, 37° C., Iso-Sensitest broth
Protocol: as §1, §2, §3, §4, §5

[3] = tested on: Staphylococcus aureus L165; assay: MIC by microbroth dilution; format: cell-based; conditions: 0.01% (w/v) BSA, 10^4 CFU/ml, read after 18-24 h, 37° C., Iso-Sensitest broth
Protocol: as §1, §2, §3, §4, §5

Strept. sanguis L1721 = assay: MIC by microbroth dilution; format: cell-based; conditions: 0.01% (w/v) BSA, 10^4 CFU/ml, read after 18-24 h, 37° C., Todd Hewitt broth
Protocol: as §1, §2, §3, §4, §5

[4] = tested on: Streptococcus pyogenes L49; assay: MIC by microbroth dilution; format: cell-based; conditions: 0.01% (w/v) BSA, 10^4 CFU/ml, read after 18-24 h, 37° C., Todd Hewitt broth
Protocol: as §1, §2, §3, §4, §5

Strept. pneumoniae L44 = assay: MIC by microbroth dilution; format: cell-based; conditions: 0.01% (w/v) BSA, 10^4 CFU/ml, read after 18-24 h, 37° C., Todd Hewitt broth
Protocol: BSA is added to the diluent to avoid possible adherence of the compounds of the invention to the plastic surface of the microtiter wells, as disclosed also by B. Goldstein et al., Antimicrobial Agents and Chemotherapy, 37 (1993), 741-745. Inocula were 10^4 CFU/ml, except for Propionibacterium acnes and Bacteroides fragilis (10^5 CFU/ml). MICs were read after 18-24 h, except for Haemophilus influenzae, P. acnes, B. fragilis (48 h). All microorganisms were incubated at 37° C.; H. influenzae in a 5% CO2 atmosphere, anaerobes in a N2 --CO2 --H2 (80:10:10) mixture; other organisms in air. The growth media are: Oxoid Iso-Sensitest broth for staphylococci and Enterococcus faecalis); Difco Todd Hewitt broth for streptococci; Difco brain heart infusion broth+1% Difco Supplement C for H. influenzae; Difco Wilkins-Chalgren broth for anaerobes.

[5] = tested on: Enterococc. faecalis ATCC 7080 L149; assay: MIC by microbroth dilution; format: cell-based, Enterococcus faecalis; conditions: 0.01% (w/v) BSA, 10^4 CFU/ml, read after 18-24 h, 37° C., Iso-Sensitest broth
Protocol: as §1, §2, §3, §4, §5

[6] = tested on: Propionibact. acnes ATCC 6919 L1014; assay: MIC by microbroth dilution; format: cell-based, Propionibacterium acnes; conditions: 0.01% (w/v) BSA, 10^5 CFU/ml, read after 48 h, 37° C., anaerobic N2-CO2-H2, Wilkins-Chalgren broth
Protocol: as §1, §2, §3, §4, §5

[7] = tested on: Haemoph. influenzae ATCC 19418 L970; assay: MIC by microbroth dilution; format: cell-based, Haemophilus influenzae; conditions: 0.01% (w/v) BSA, 10^4 CFU/ml, read after 48 h, 37° C., 5% CO2, brain heart infusion broth+1% Supplement C
Protocol: as §1, §2, §3, §4, §5

Strept. agalactiae L310 = assay: MIC by microbroth dilution; format: cell-based; conditions: 0.01% (w/v) BSA, 10^4 CFU/ml, read after 18-24 h, 37° C., Todd Hewitt broth
Protocol: as §1, §2, §3, §4, §5

staphylococci isolates = assay: MIC on clinical isolates; format: cell-based; conditions: highest MIC observed
streptococci isolates = assay: MIC on clinical isolates; format: cell-based; conditions: highest MIC observed
enterococci isolates = assay: MIC on clinical isolates; format: cell-based; conditions: highest MIC observed
S. aureus (L819) = assay: experimental septicemia in the mouse; format: in vivo; conditions: immunocompetent CD-1 mice infected i.p.; intravenously once, immediately after infection; survival on the 7th day
Protocol: (§6) The antimicrobial activity of the compounds of the invention is confirmed also in experimental septicemia in the mouse. Control and treatment groups contain ten CD-1 mice (Charles River) weighing 18-22 g. Two groups of immunocompetent mice are infected intraperitoneally with 0.5 ml of bacterial suspension prepared by diluting an overnight culture of S. aureus ([…]) or S. pyogenes ([…]) with sterile peptonized saline, while one group of neutropenic mice is infected intraperitoneally with 0.5 ml of bacterial suspension prepared by diluting an overnight culture of or E. faecalis ([…]) with sterile peptonized saline. Inocula are adjusted so that untreated animals died of septicemia within 48 h. The compound to be tested is administered intravenously once, immediately after infection with S. aureus, or twice, immediately and 5 hours after infection with S. pyogenes or E. faecalis. On the 7th day, the ED50 in mg/kg is calculated by the method of Spearman and Kraber (D. J. Finney "Statistical Methods in Biological Assay", Griffin, page 524, 1952) from the percentage of surviving animals at each dose.

S. pyogenes (L49) = assay: experimental septicemia in the mouse; format: in vivo; conditions: immunocompetent CD-1 mice infected i.p.; intravenously twice, immediately and 5 hours after infection; survival on the 7th day
Protocol: as §6

E. faecalis (L1139) = assay: experimental septicemia in the mouse (neutropenic); format: in vivo; conditions: neutropenic CD-1 mice infected i.p.; intravenously twice, immediately and 5 hours after infection; survival on the 7th day
Protocol: as §6

gram positive bacteria = conditions: described by K. Shimanaka et al.; cited from earlier work

Question: With `CCN(CC)CCNC(=O)C1CCCN1C(=O)C1COC(c2csc(-c3ccc4c(n3)-c3csc(n3)-c3csc(n3)C(C(O)c3ccccc3)NC(=O)CNC(=O)c3nc(sc3COC)C(C(C)C)NC(=O)c3nc(sc3C)C(CC(=O)NC)NC(=O)c3csc-4n3)n2)=N1` (mixture of isomers) [Compound 3] as the compound, how does the “MIC of the compounds, Bacteroides fragilis ATCC 25285 L1011” value [1] read?
Answer: 8 µg/mL

Question: What about the “MIC of the compounds, Staph. epidermidis ATCC 12228 L147” value [2] of the same compound?
Answer: 0.13 µg/mL

Question: And the “MIC of the compounds, Staph. haemolyticus L602” value (Staph. haemolyticus L602)?
Answer: 0.13 µg/mL

Question: And the “MIC of the compounds, Staphylococcus aureus L165” value [3]?
Answer: 0.03 µg/mL

Question: What about the “MIC of the compounds, Strept. sanguis L1721” value (Strept. sanguis L1721) of the same compound?
Answer: 0.25 µg/mL

Question: And the “MIC of the compounds, Streptococcus pyogenes L49” value [4]?
Answer: 0.5 µg/mL

Question: And the “MIC of the compounds, Strept. pneumoniae L44” value (Strept. pneumoniae L44)?
Answer: 0.13 µg/mL

Question: And the “MIC of the compounds, Enterococc. faecalis ATCC 7080 L149” value [5]?
Answer: 0.03 µg/mL

Question: What about the “MIC of the compounds, Propionibact. acnes ATCC 6919 L1014” value [6] of the same compound?
Answer: 0.03 µg/mL

Question: And the “MIC of the compounds, Haemoph. influenzae ATCC 19418 L970” value [7]?
Answer: 8 µg/mL

Question: Which “MIC of the compounds, Bacteroides fragilis ATCC 25285 L1011” value [1] does the source give for `CCN(CC)CCNC(=O)C1CCCN1C(=O)C1COC(c2csc(-c3ccc4c(n3)-c3csc(n3)-c3csc(n3)C(C(O)c3ccccc3)NC(=O)CNC(=O)c3nc(sc3COC)C(C(C)C)NC(=O)c3nc(sc3C)C(CC(=O)NC)NC(=O)c3csc-4n3)n2)=N1` (stereo not shown) [Compound 3s] here?
Answer: 8 µg/mL

Question: And the “MIC of the compounds, Staph. epidermidis ATCC 12228 L147” value [2]?
Answer: 0.13 µg/mL

Question: And the “MIC of the compounds, Staph. haemolyticus L602” value (Staph. haemolyticus L602)?
Answer: 0.13 µg/mL

Question: What about the “MIC of the compounds, Staphylococcus aureus L165” value [3] of the same compound?
Answer: 0.06 µg/mL

Question: What about the “MIC of the compounds, Strept. agalactiae L310” value (Strept. agalactiae L310) of the same compound?
Answer: 0.5 µg/mL

Question: And the “MIC of the compounds, Strept. sanguis L1721” value (Strept. sanguis L1721)?
Answer: 0.13 µg/mL

Question: What about the “MIC of the compounds, Streptococcus pyogenes L49” value [4] of the same compound?
Answer: 0.25 µg/mL

Question: And the “MIC of the compounds, Strept. pneumoniae L44” value (Strept. pneumoniae L44)?
Answer: 0.13 µg/mL

Question: And the “MIC of the compounds, Enterococc. faecalis ATCC 7080 L149” value [5]?
Answer: 0.06 µg/mL

Question: And the “MIC of the compounds, Propionibact. acnes ATCC 6919 L1014” value [6]?
Answer: 0.03 µg/mL

Question: What about the “MIC of the compounds, Haemoph. influenzae ATCC 19418 L970” value [7] of the same compound?
Answer: 8 µg/mL

Question: What about the “MIC against staphylococci isolates” value (staphylococci isolates) of the same compound?
Answer: ≤ 0.5 µg/mL

Question: And the “MIC against streptococci isolates” value (streptococci isolates)?
Answer: ≤ 1.0 µg/mL

Question: What about the “MIC against enterococci isolates” value (enterococci isolates) of the same compound?
Answer: ≤ 0.13 µg/mL

Question: And the “ED50 in experimental septicemia, S. aureus (L819)” value (S. aureus (L819))?
Answer: 1.5 mg/kg/dose

Question: And the “ED50 in experimental septicemia, S. pyogenes (L49)” value (S. pyogenes (L49))?
Answer: 7 mg/kg/dose

Question: What about the “ED50 in experimental septicemia, E. faecalis (L1139)” value (E. faecalis (L1139)) of the same compound?
Answer: 0.67 mg/kg/dose

Question: For `CNC(=O)CC1NC(=O)c2csc(n2)-c2ccc(-c3nc(C4=NC(C(=O)N5CCCC5C(N)=O)CO4)cs3)nc2-c2csc(n2)-c2csc(n2)C(C(C)C)NC(=O)CNC(=O)c2csc(n2)C(C(C)C)NC(=O)c2nc1sc2C` (stereo not shown) [amythiamicin factor A], which “antimicrobial activity against gram positive bacteria” value (gram positive bacteria) is on record?
Answer: shows antimicrobial activity against gram positive bacteria

Source: US6143739A, “Basic proline-amide derivatives of GE 2270 and GE 2270-like antibiotics” (Biosearch Italia S.p.A., priority 1995, dated 2000)
